Experimental data reported in article PMC8318231, “Rate-of-Kill (RoK) assays to triage large compound sets for Chagas disease drug discovery: Application to GSK Chagas Box” (PLoS Neglected Tropical Diseases, 2021).

How the values were obtained:
[1] = tested on: T. cruzi Tulahuen trypomastigotes; assay: T. cruzi trypomastigote assay (Cell Titer-Glo viability, ATP luminescence); assay type: cell-based, Trypanosoma cruzi; conditions: for Trypomastigotes pIC50 48 hours: 48 hours incubation; for Trypomastigotes pIC50 48 hours / Trypomastigotes pIC50 72 hours: pIC50 = -log10 IC50 in molar units; for Trypomastigotes pIC50 72 hours: 72 hours incubation; for 48 pIC50 / 72 pIC50: trypomastigote assay; for 48 pIC50: 48 h; for 72 pIC50: 72 h
Method: T. cruzi Tulahuen trypomastigotes obtained from the supernatants of LLC-MK2 infected cultures in a 225 cm^2 T-Flasks harvested between days 5 and 8 of infection. Trypomastigotes (5 × 10^4 per well) in 50 μl of DMEM/ 2% FBS were dispensed into white 384 plates (Greiner) pre-stamped with 250 nl compound a single-shot final concentration of 5 μM, or in dose response. […] Cell Titer-Glo cell viability solution (Promega) was added to each well (50 μL) incubated at room temperature for 10 min and luminescence read by Envision plate reader (Perkin Elmer). This assay quantifies the amount of ATP present which is directly proportional to the number of metabolically active cells. All data were normalised (100% effect control for no cells and 0% effect control for DMSO). This assay was adapted from MacLean et al., 2018 [22].

TcCYP51 = conditions: formerly reported; cited from earlier work

| SMILES | Trypomastigotes pIC50 48 hours [1] | Trypomastigotes pIC50 72 hours [1] | 48 pIC50 ([1]; figure 1A) | 72 pIC50 ([1]; figure 1A) | 72 pIC50 ([1]; figure 1B) | CYP51 pIC50 (TcCYP51) |
| --- | --- | --- | --- | --- | --- | --- |
| Cc1c([N+](=O)[O-])c(C(=O)Nc2sc3c(c2C#N)CCC(C)C3)nn1C (centres unmarked) [TCMDC-143155] | 5.3 | 5.3 | 5.3 | 5.3 | 5.3 | < 4 |
| O=C(Nc1ccc(Br)cn1)c1ccc(Cn2cnc([N+](=O)[O-])n2)cc1 [TCMDC-143156] | 6.1 | 6.1 | 6.1 | 6.1 | 6.1 | < 4 |
| CC1=NN(C(=O)CCn2cnc([N+](=O)[O-])n2)C(O)(C(F)(F)F)C1 (centres unmarked) [TCMDC-143157] | < 4.3 | < 4.3 | < 4.3 | < 4.3 | < 4.3 | < 4 |
| O=C(c1cc2cc(Cl)ccc2[nH]1)N1CCCCC1c1cccnc1 (centres unmarked) [TCMDC-143159] | 4.5 | 4.4 |  |  |  | 7.2 |
| O=S(=O)(c1ccccc1C(F)(F)F)N1CCN(Cc2ccc(-n3ccnc3)cc2)CC1 [TCMDC-143161] | < 4.3 | < 4.3 | < 4.3 | < 4.3 | < 4.3 | 7 |
| CC1(Oc2cncc(Cl)c2)CCN(Cc2cc3ccccc3[nH]2)C1 (centres unmarked) [TCMDC-143162] | 5.6 | 6.1 |  |  |  | 5 |
| CC(=O)Nc1ccc(-c2csc(NC(=O)c3ccc([N+](=O)[O-])s3)n2)cc1 [TCMDC-143164] | 6.4 | 6.6 |  |  |  | 5.2 |
| N#Cc1cccc(CN2CCC(N(Cc3cccnc3)C(=O)c3cc(F)c(F)cc3F)CC2)c1 [TCMDC-143178] | < 4.3 | < 4.3 | < 4.3 | < 4.3 | < 4.3 | 7.3 |
| N#Cc1cccc(CN2CCC(c3nc(-c4ccc(C(F)(F)F)nc4)no3)CC2)c1 [TCMDC-143179] | < 4.3 | < 4.3 | < 4.3 | < 4.3 | < 4.3 | < 4 |
| COc1ccc(-c2nc3ccncc3c(=O)n2CCOc2ccccc2)cc1 [TCMDC-143182] | < 4.3 | < 4.3 | < 4.3 | < 4.3 | < 4.3 | 7.4 |
| O=C(CCCn1cnc([N+](=O)[O-])n1)Nc1cccc(Cl)c1 [TCMDC-143186] | 6 | 5.9 |  |  |  | 4.3 |
| CC1=C(C(=O)Nc2ccc(Cl)cc2)C(c2ccncc2)n2ncc(C(=O)Nc3ccccc3)c2N1 (centres unmarked) [TCMDC-143187] | < 4.3 | < 4.3 | < 4.3 | < 4.3 | < 4.3 | 6.9 |
| Cc1ccc2c(c1)-c1onc(C(=O)N3CCCCC3c3cccnc3)c1CO2 (centres unmarked) [TCMDC-143191] | 4.7 | 4.4 |  |  |  | 7 |
| COc1ccc(-c2cc(C)no2)cc1S(=O)(=O)Nc1ccc(F)c(Cl)c1 [TCMDC-143193] | 4.8 | 4.4 |  |  |  | < 4 |
| O=c1[nH]c(C=Cc2cccc(OCCOc3ccccc3)c2)nc(O)c1[N+](=O)[O-] [TCMDC-143209] | < 4.3 | < 4.3 | < 4.3 | < 4.3 | < 4.3 | < 4 |
| CN(Cc1cc2ccccc2s1)c1ncc2c(N)nc(N)nc2n1 [TCMDC-143232] | 5.3 | 5.5 |  |  |  | < 4 |
| Clc1ccc(OCCN2CCCCC2c2cccnc2)c(Cl)c1 (centres unmarked) [TCMDC-143235] | 4.4 | 4.4 | 4.4 | 4.4 | 4.4 | 7.2 |
| O=C(NCCNc1noc(-c2ccc([N+](=O)[O-])cc2)n1)c1ccc(Cl)cc1 [TCMDC-143241] | 5.4 | 5.5 |  |  |  | < 4 |
| CN(Cc1cccnc1)Cc1ccc(N2CCN(C(=O)C3(c4ccc(Cl)cc4)CC3)CC2)nc1 [TCMDC-143247] | 5.1 | 4.4 |  |  |  | 6.8 |
| Cc1nn(C2CCS(=O)(=O)C2)c(C)c1CN(C)C(=O)C=Cc1sc2ccccc2c1Cl (centres unmarked) [TCMDC-143258] | 4.4 | 4.7 |  |  |  | 7.5 |
| Cc1cc(C)nc(N2CCC(N(Cc3cccnc3)C(=O)c3cccc(C#N)c3)CC2)n1 [TCMDC-143272] | < 4.3 | < 4.3 | < 4.3 | < 4.3 | < 4.3 | 6.9 |
| Cn1c(CN2CCN(c3ncc(C(F)(F)F)cc3Cl)CC2)nc2ccncc21 [TCMDC-143276] | < 4.3 | < 4.3 | < 4.3 | < 4.3 | < 4.3 | 7.1 |
| O=C(Nc1nc(-c2ccc(S(=O)(=O)N3CCOCC3)cc2)cs1)c1ccc([N+](=O)[O-])cc1 [TCMDC-143282] | 5.8 | 5.8 | 5.8 | 5.8 | 5.8 | < 4 |
| Cc1ccc2sc(NC(=O)Cn3cnc([N+](=O)[O-])n3)nc2c1 [TCMDC-143284] | 5.6 | 5.3 |  |  |  | < 4 |
| CCN(CC)S(=O)(=O)c1ccc(Cn2nc(C(=O)Nc3ccncn3)c3ccccc32)cc1 [TCMDC-143288] | < 4.3 | < 4.3 | < 4.3 | < 4.3 | < 4.3 | 6.8 |
| CC(C(=O)Nc1ccccc1F)N(C)CC(=O)Nc1cccc2ccccc12 (centres unmarked) [TCMDC-143293] |  | < 4.3 |  |  |  | 4.8 |
| Cc1ccc2ccc(C(Nc3ccccn3)c3cccnc3)c(O)c2n1 (centres unmarked) [TCMDC-143308] | 5.7 | 5.4 |  |  |  | 7.3 |
| COc1ccccc1C=CCN1C[C@H]2CCC[C@@H](C1)C2(O)c1cccnc1 (some centres unmarked) [TCMDC-143309] | < 4.3 | 4.5 |  |  |  | 6.9 |
| O=C(NCC(c1cccnc1)N1CCc2ccccc2C1)C(=O)Nc1cccc(Cl)c1 (centres unmarked) [TCMDC-143329] | 4.8 | 4.8 | 4.8 | 4.8 | 4.8 | 7.2 |
